Measurements as given in EP0519976B1, “NEUTROPHIL STIMULATING PEPTIDES” (PEPTIDE TECHNOLOGY LTD, priority 1990, dated 1991).

System: Purified human neutrophils
Experiment: Lucigenin dependent chemiluminescence assay (neutrophil respiratory burst / priming for F-met-leu-phe response)
Assay type: cell-based
Details: fMLP alone
Description: Purified human neutrophils were pretreated with peptide for 20 minutes before the addition of f-met-leu-phe. The lucigenin dependent chemiluminescence response, which reflects superoxide production, was then measured. The results obtained are set out in Table 2 and are expressed as mV of lucigenin dependent chemiluminescence and represent the maximal cell activity attained.
This experiment was repeated with peptides 304, 308 and 309.
The experiment was also conducted using peptides 393, 394, 395 and 396. […]
Results are expressed as mV of lucigenin dependent chemiluminescence and respresent peak of response i.e. the maximal cell activity attained.

`CSCC[C@H](NC=O)C(=O)N[C@@H](CC(C)C)C(=O)N[C@@H](Cc1ccccc1)C(=O)O` [fMLP, N-formyl-L-methionyl-L-leucyl-L-phenylalanine] gave a Chemiluminescence (Exp. 1) of 1.53 mV, a Chemiluminescence (Exp. 2) of 3.53 mV and a Chemiluminescence (Exp. 3) of 1.96 mV.
